Data: ChEMBL document CHEMBL1145791, “Synthesis and biological activity of various derivatives of a novel class of potent, selective, and orally active prostaglandin D2 receptor antagonists. 1. Bicyclo[2.2.1]heptane derivatives” (J Med Chem, 2003)

What was measured:
[1] = target: T1, Prostaglandin D2 receptor (Homo sapiens, UniProt Q13258); test: In vitro inhibition of [3H]- PGD-2 radioligand binding to prostaglandin D2 receptor on human platelet membrane
T1 sequence (Q13258 whole entry): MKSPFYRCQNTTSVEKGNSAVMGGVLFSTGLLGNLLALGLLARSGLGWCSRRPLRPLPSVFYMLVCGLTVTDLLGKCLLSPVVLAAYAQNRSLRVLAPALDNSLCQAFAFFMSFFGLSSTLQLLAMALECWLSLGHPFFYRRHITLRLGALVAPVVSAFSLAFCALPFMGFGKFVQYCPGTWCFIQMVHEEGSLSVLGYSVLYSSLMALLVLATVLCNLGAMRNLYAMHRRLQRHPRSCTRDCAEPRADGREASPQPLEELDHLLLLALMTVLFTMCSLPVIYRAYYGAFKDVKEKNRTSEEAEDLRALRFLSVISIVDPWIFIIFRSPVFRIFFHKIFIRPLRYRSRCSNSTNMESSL

[2] = target: T1, Prostaglandin D2 receptor; test: In vitro inhibition of cAMP formation evoked by prostaglandin D2 receptor in human platelets; type: functional
[3] = tested on: Cavia porcellus; test: In vivo inhibition of antigen induced increase in intranasal pressure in actively sensitized guinea pig after dose of 10 mg/kg; type: functional; conditions: for inhibition in vivo at 10 mg/kg: Cavia porcellus
[4] = tested on: Cavia porcellus; test: Inhibition of increase in specific airway resistance by antigen inhalation in conscious guinea pig at a dose of 10 mg/kg administered perorally 1 hr before challenge in asthma model; type: functional; conditions: route oral
[5] = tested on: Cavia porcellus; test: In vivo inhibition of antigen induced increase in intranasal pressure in actively sensitized guinea pig after an intravenous dose of 1 mg/kg; type: functional

Row | IC50 [1] | IC50 [2] | Compound | further results
1 | 200 nM | 180 nM | O=C(O)CCC/C=C\C[C@@H]1[C@H]2CC[C@H](C2)[C@H]1NS(=O)(=O)c1ccc(/C=C\c2ccccc2)cc1 | –
2 | 42 nM | 32 nM | CS(=O)(=O)NC(=O)CCC/C=C\C[C@@H]1[C@H]2CC[C@H](C2)[C@H]1NS(=O)(=O)c1ccc2oc3ccccc3c2c1 | –
3 | – | > 1000 nM | O=C(O)CCC/C=C\C[C@@H]1[C@H]2CC[C@H](C2)[C@H]1NS(=O)(=O)c1ccc2c(c1)Cc1ccccc1-2 | –
4 | 1100 nM | 86 nM | O=C(O)CCC/C=C\C[C@@H]1[C@H]2CC[C@H](C2)[C@H]1NS(=O)(=O)c1ccc(C(=O)Nc2ccccc2)cc1 | –
5 | – | – | O=C(O)CCC/C=C\C[C@@H]1[C@H]2CC[C@H](C2)[C@H]1NS(=O)(=O)c1ccc2oc3ccccc3c2c1 | inhibition in vivo at 10 mg/kg [3]: 75%
6 | > 10000 nM | 720 nM | CC(C)(C)c1ccc(S(=O)(=O)N[C@@H]2[C@@H]3CC[C@@H](C3)[C@H]2C/C=C\CCCC(=O)O)cc1 | –
7 | 24 nM | 52 nM | COc1cc2c(cc1S(=O)(=O)N[C@@H]1[C@@H]3CC[C@@H](C3)[C@H]1C/C=C\CCCC(=O)O)oc1ccccc12 | inhibition in vivo at 10 mg/kg [4]: 42%; Inhibition ([3]; 10 mg/kg): 82%; inhibition in vivo at 10 mg/kg [3]: 81%
8 | 57 nM | 320 nM | COc1cc2c(cc1S(=O)(=O)N[C@@H]1[C@@H]3CC[C@@H](C3)[C@H]1C/C=C\CCC(C)(C)C(=O)O)oc1ccccc12 | –
9 | 190 nM | 210 nM | O=C(O)CCC/C=C\C[C@@H]1[C@H]2CC[C@H](C2)[C@H]1NS(=O)(=O)c1ccc(-c2cc3ccccc3[nH]2)cc1 | –
10 | 580 nM | 220 nM | O=C(O)CCC/C=C\C[C@@H]1[C@H]2CC[C@H](C2)[C@H]1NS(=O)(=O)c1ccc(-c2ccccc2)s1 | –
11 | 200 nM | 250 nM | O=C(O)CCC/C=C\C[C@@H]1[C@H]2CC[C@H](C2)[C@H]1NS(=O)(=O)c1ccc2oc3ccc(O)cc3c2c1 | –
12 | 550 nM | 260 nM | O=C(O)CCC/C=C\C[C@@H]1[C@H]2CC[C@H](C2)[C@H]1NS(=O)(=O)c1ccc(CCc2ccccc2)cc1 | –
13 | 410 nM | 200 nM | O=C(O)CCC/C=C\C[C@@H]1[C@H]2CC[C@H](C2)[C@H]1NS(=O)(=O)c1ccc(-c2cccs2)s1 | –
14 | 180 nM | 320 nM | CC(C)(CC/C=C\C[C@@H]1[C@H]2CC[C@H](C2)[C@H]1NS(=O)(=O)c1ccc2oc3ccccc3c2c1)C(=O)O | –
15 | 15 nM | 45 nM | COc1ccc(-c2cc3ccc(S(=O)(=O)N[C@@H]4[C@@H]5CC[C@@H](C5)[C@H]4C/C=C\CCCC(=O)O)cc3[nH]2)cc1 | inhibition in vivo at 1 mg/kg [5]: 40%
16 | 660 nM | 350 nM | O=C(O)CCC/C=C\C[C@@H]1[C@H]2CC[C@H](C2)[C@H]1NS(=O)(=O)c1ccc(-c2ccc(C(F)(F)F)cc2)cc1 | –
17 | 680 nM | 19 nM | O=C(O)CCCCC(=O)C[C@@H]1[C@H]2CC[C@H](C2)[C@H]1NS(=O)(=O)c1ccc2oc3ccccc3c2c1 | –
18 | – | 71 nM | O=C(O)CCC/C=C\C[C@@H]1[C@H]2CC[C@H](C2)[C@H]1NS(=O)(=O)c1ccc2cc(-c3ccccc3)[nH]c2c1 | –
19 | 960 nM | 33 nM | COc1cc2c(cc1S(=O)(=O)N[C@@H]1[C@@H]3CC[C@@H](C3)[C@H]1CC(=O)CCCCC(=O)O)oc1ccccc12 | –
20 | 22 nM | 22 nM | O=C(O)CCC/C=C\C[C@@H]1[C@H]2CC[C@H](C2)[C@H]1NS(=O)(=O)c1ccc2[nH]c3ccccc3c2c1 | inhibition in vivo at 1 mg/kg [5]: -9%
21 | 5200 nM | 650 nM | O=C(O)CCC/C=C\C[C@@H]1[C@H]2CC[C@H](C2)[C@H]1NS(=O)(=O)c1ccc(Cc2ccccc2)cc1 | –
22 | 64 nM | 180 nM | O=C(O)CCC/C=C\C[C@@H]1[C@H]2CC[C@H](C2)[C@H]1NS(=O)(=O)c1ccc2sc3ccccc3c2c1 | inhibition in vivo at 1 mg/kg [5]: 31%
23 | 62 nM | 380 nM | O=C(O)CCC/C=C\C[C@@H]1[C@H]2CC[C@H](C2)[C@H]1NS(=O)(=O)c1ccc(-c2nnnn2-c2ccccc2)cc1 | –
24 | 550 nM | 57 nM | O=C(O)CCC/C=C\C[C@@H]1[C@H]2CC[C@H](C2)[C@H]1NS(=O)(=O)c1ccc2oc3cc([N+](=O)[O-])ccc3c2c1 | –

Row | IC50 [1] | IC50 [2] | Compound | further results
25 | 450 nM | 200 nM | COc1ccc(-c2ccc(S(=O)(=O)N[C@@H]3[C@@H]4CC[C@@H](C4)[C@H]3C/C=C\CCCC(=O)O)cc2)cc1 | –
26 | 34 nM | 330 nM | COc1ccc2oc3ccc(S(=O)(=O)N[C@@H]4[C@@H]5CC[C@@H](C5)[C@H]4C/C=C\CCCC(=O)O)cc3c2c1 | –
27 | 25 nM | – | O=C(O)CCC/C=C\C[C@@H]1[C@H]2CC[C@H](C2)[C@H]1NS(=O)(=O)c1ccc(/N=N/c2ccccc2)cc1 | –
28 | 18 nM | 25 nM | O=C(O)CCC/C=C\C[C@@H]1[C@H]2CC[C@H](C2)[C@H]1NS(=O)(=O)c1ccc2cc(-c3ccc(O)cc3)[nH]c2c1 | inhibition in vivo at 1 mg/kg [5]: 42%
29 | 120 nM | 430 nM | O=C(O)CCCCCC[C@@H]1[C@H]2CC[C@H](C2)[C@H]1NS(=O)(=O)c1ccc2oc3ccccc3c2c1 | –
30 | 190 nM | 180 nM | O=C(O)CCC/C=C\C[C@@H]1[C@H]2CC[C@H](C2)[C@H]1NS(=O)(=O)c1cc2oc3ccccc3c2cc1O | –
31 | 680 nM | 570 nM | O=C(O)CCC/C=C\C[C@@H]1[C@H]2CC[C@H](C2)[C@H]1NS(=O)(=O)c1ccc(Oc2ccccc2)cc1 | –
32 | 380 nM | 190 nM | Cn1c(-c2ccccc2)cc2ccc(S(=O)(=O)N[C@@H]3[C@@H]4CC[C@@H](C4)[C@H]3C/C=C\CCCC(=O)O)cc21 | –
33 | > 10000 nM | 390 nM | COc1ccc(S(=O)(=O)N[C@@H]2[C@@H]3CC[C@@H](C3)[C@H]2C/C=C\CCCC(=O)O)cc1 | –
34 | 22 nM | 160 nM | O=C(O)CCC/C=C\C[C@@H]1[C@H]2CC[C@H](C2)[C@H]1NS(=O)(=O)c1ccc2c(c1)oc1ccccc12 | –
35 | 5300 nM | 340 nM | O=C(O)CCC/C=C\C[C@@H]1[C@H]2CC[C@H](C2)[C@H]1NS(=O)(=O)c1ccccc1Br | –
36 | 32 nM | 34 nM | CCOc1cc2c(cc1S(=O)(=O)N[C@@H]1[C@@H]3CC[C@@H](C3)[C@H]1C/C=C\CCCC(=O)O)oc1ccccc12 | inhibition in vivo at 10 mg/kg [3]: 53%
37 | 90 nM | 100 nM | O=C(O)CCC/C=C\C[C@@H]1[C@H]2CC[C@H](C2)[C@H]1NS(=O)(=O)c1ccc(/C=C/c2ccccc2)s1 | –
38 | 5400 nM | 130 nM | Cc1cc(C)c(S(=O)(=O)N[C@@H]2[C@@H]3CC[C@@H](C3)[C@H]2C/C=C\CCCC(=O)O)c(C)c1 | –
39 | 8600 nM | > 1000 nM | O=C(O)CCC/C=C\C[C@@H]1[C@H]2CC[C@H](C2)[C@H]1NS(=O)(=O)Cc1ccc(-c2ccccc2)cc1 | –
40 | 6000 nM | 120 nM | O=C(O)CCC/C=C\C[C@@H]1[C@H]2CC[C@H](C2)[C@H]1NS(=O)(=O)c1ccc(NC(=O)c2ccccc2)cc1 | –
41 | 5400 nM | 280 nM | COc1ccc(S(=O)(=O)N[C@@H]2[C@@H]3CC[C@@H](C3)[C@H]2C/C=C\CCCC(=O)O)cc1[N+](=O)[O-] | –
42 | 36 nM | 170 nM | CN(C)c1ccc2c(c1)oc1ccc(S(=O)(=O)N[C@@H]3[C@@H]4CC[C@@H](C4)[C@H]3C/C=C\CCCC(=O)O)cc12 | –
43 | 8.5 nM | 210 nM | O=C(O)CCC/C=C\C[C@@H]1[C@H]2CC[C@H](C2)[C@H]1NS(=O)(=O)c1ccc(C#Cc2ccccc2)cc1 | –
44 | 100 nM | 180 nM | O=C(O)CCC/C=C\C[C@@H]1[C@H]2CC[C@H](C2)[C@H]1NS(=O)(=O)c1ccc(/C=C/c2ccccc2)cc1 | –
45 | 330 nM | 160 nM | O=C(O)CCC/C=C\C[C@@H]1[C@H]2CC[C@H](C2)[C@H]1NS(=O)(=O)c1ccc(Nc2ccccc2)cc1 | –
46 | 8600 nM | – | O=C(O)CCC/C=C\C[C@@H]1[C@H]2CC[C@H](C2)[C@H]1NS(=O)(=O)c1ccccc1-c1ccccc1 | –
47 | 670 nM | 280 nM | O=C(O)CCC/C=C\C[C@@H]1[C@H]2CC[C@H](C2)[C@H]1NS(=O)(=O)c1cccc(-c2ccccc2)c1 | –
